The values below come from US12697748B2, “Wood treatment compositions having antimicrobial properties” (Société en Commandite Prolam, priority 2022, dated 2026).

Common to all, as to assay type: cell-based
For assay [1], the system named is Escherichia coli ATCC 11229. The experiment in a line: Growth inhibition zone of treated wood pieces on TSA nutrient gel. The following applies: 24 h at 36° C., listed as Negative control. As to the method: (§1) Cubic pieces of Maplewood of about 3 mm of thickness with a surface of about 1 cm^2 were provided. For Sample A, the pieces were heated on a heating plate at 230° C. for about 45 seconds, and dipped into the tannin solution for about 25 seconds, again heated on the heating plate for about 45 seconds and dipped in paraffin at 65° C. for about 25 seconds. For Sample B, the pieces were heated on a heating plate for about 45 seconds, and dipped into the tannin solution for about 25 seconds. The impregnation rate was calculated to be around 645 g/m^2 (60 g/pi^2).
(§2) The growth inhibition for Escherichia coli ATCC 11229 and Staphylococcus aureus ATCC 6538 was first determined. A culture of each microorganism was spread at the surface of Tryptic Soy agar (TSA) nutrient gel. Treated wood was cut into cubic pieces of about 3 mm of thickness with a surface of about 1 cm^2, as prepared above. Each piece was deposited on the nutrient gel, treated face down, contacting the gel, and using two pieces for each microorganism. The petri dishes containing the nutrient gel were closed and incubated for 24 h at 36° C. Sterile filters moistened with demineralized water and with a mercury chloride 0.018 mol/L solution were used and tested as negative and positive controls, respectively. After the incubation period, the growth inhibition zone was measured, and the incubation pursued for three (3) additional days to evaluate the growth under the wooden cubes after the prolonged incubation.
(§3) Cubic pieces of Maplewood of about 1 cm of thickness with a surface of about […] were provided. For Samples 1 and 2, the pieces were heated on a heating plate at 230° C. for about 45 seconds, and dipped into the tannin solution for about 25 seconds, again heated on the heating plate for about 45 seconds and dipped in paraffin at 65° C. for about 25 seconds. For Samples 4 and 5, the pieces were heated on a heating plate for about 45 seconds, and dipped into the tannin solution for about 25 seconds. The impregnation rate was calculated to be around 301 g/m^2 (28 g/pi^2). […]

Assay [2] relates to Staphylococcus aureus ATCC 6538. The description is as above. The following applies: 24 h at 36° C. As to the method:
as §1, §2, §3

The test system of assay [3] is Escherichia coli ATCC 11229. The experiment in a line: Qualitative antibacterial effect, inhibition zone after 48 h (Example 6). The following applies: filter (diameter 10 mm). The method, then: Cubic pieces of Maplewood of about 1 cm of thickness with a surface of about […] were provided. For Sample Y, the pieces were heated on a heating plate at 230° C. for about 45 seconds, and dipped into the tannin solution for about 25 seconds, again heated on the heating plate for about 45 seconds and dipped in paraffin at 65° C. for about 25 seconds. For Sample X, the pieces were heated on a heating plate for about 45 seconds, and dipped into the tannin solution for about 25 seconds.
After the above impregnation, manual vaporization of the Tanac Weibull™ solution was also conducted. Samples X and Y were sprayed five times each, with 24 h between each spray.
The growth inhibition for Escherichia coli ATCC 11229 was determined. A culture of the microorganism was spread at the surface of Tryptic Soy agar (TSA) nutrient gel. Treated wood cubic pieces of about 3 mm of thickness with a surface of about 1 cm^2, as prepared above. The wooden pieces of Sample X (duplicated) were then rehumidified with water, Sample Y was not rehumidified and two Samples Z (no treated) were used: as is and rehumidified. Each piece was deposited on the nutrient gel, treated face down, contacting the gel. […] After the incubation period, the growth inhibition zone was measured and the incubation pursued at 48 h to evaluate the growth under the wooden cubes after the prolonged incubation.

As for `[Cl][Hg][Cl]` [Positive control, mercury chloride], the figures for the “Diameter of the inhibition zone” value in assay [1], in assay [2] and in assay [2] (listed as Negative control) were 23 mm, 32 mm and 25 mm, respectively. Further, the “Diameter of the inhibition zone after 48 h” value in assay [3] amounted to 22 mm.
